Where no end group is shown, it is not given here.
Assays:
[1] = test system: rats; assay: Rat formalin test, suboccipital injection of peptide 20 min before formalin; assay type: in vivo; settings: for Duration of the first peak of pain reaction / Time of pain reaction onset: Table 2, suboccipital injection
Experimental: Analgesic activity of newly synthesized peptides was examined in the “formalin test” which allows discovering non-narcotic type of anesthesia (Wheeler-Aceto H., Porrea F., A. Cowan. The rat paw formalin test: comparison of noxious agents. Pain, 40 (1990), 229-238).
(§1) Analgesic activity of newly synthesized peptides was examined as follows. Rats weighing 180-200 g were suboccipitally injected with the study peptide under ether anesthesia using a microdispenser in 10 μl of normal saline. Control animals were similarly injected with the equal amount of normal saline. After 20 minutes, 50 mcl of formalin solution at a dilution of 1:50 was injected into the dorsal surface of the right hind paw. The time of peptide injection and formalin dilution has been developed earlier. Each rat was used only once. The most clear behavioral indicators of pain reaction were expressed in paw tucking, licking, nibbling and jolting. Moreover, the first acute reaction to pain lasting for 6-7 min in control animals was followed by the dormant period: a rat lowered its paw, grooming behavior and nibbling was stopped. Then the reaction was repeated with expression not less than the previous one—it was the second phase of pain reaction.
The moment of paw tucking (beginning of the 1st phase of pain reaction), duration of this reaction, duration of dormancy and time of onset of the second phase of reaction—repeated paw tucking or its absence—were visually recorded in order to obtain quantitative data. Peptide was injected 20 min prior to formalin injection in case of suboccipital method of peptide injection and 30 min prior to formalin injection in case of intranasal method.

[2] = test system: rats; assay: Rat formalin test, intranasal administration of peptide 30 min before formalin; assay type: in vivo; settings: Table 7; for Duration of the 1st peak of pain reaction: in s
Experimental: as §1
The moment of paw tucking (beginning of the 1st phase of pain reaction), duration of this reaction, duration of dormancy and time of onset of the second phase of reaction—repeated paw tucking or its absence—were visually recorded in order to obtain quantitative data. Peptide was injected 20 min prior to formalin injection in case of suboccipital method of peptide injection and 30 min prior to formalin injection in case of intranasal method. […]

[3] = test system: rats; settings: earlier work of Kotin, Vlasov et al. 1988; cited from earlier work
[4] = earlier work; cited from earlier work
[5] = intranasal in citrate phosphate buffer, 30 min prior to formalin 2%, dose 10 μg

Substance	Beginning of pain reaction [2, 5] [s]	Beginning of pain reaction ([2]; intranasal, dose 0.1 μg) [s]	Beginning of the 2nd peak ([2]; intranasal, dose 0.1 μg) [min]	Duration of the 1st peak of pain reaction ([2]; intranasal, dose 0.1 μg)	Beginning of pain reaction ([2]; intranasal, dose 1 μg) [s]	Beginning of the 2nd peak ([2]; intranasal, dose 1 μg)	Duration of the 1st peak of pain reaction ([2]; intranasal, dose 1 μg)	Beginning of the 2nd peak ([2]; intranasal, dose 10 μg) [min]	Duration of the 1st peak of pain reaction ([2]; intranasal, dose 10 μg)	other results
CGRP	–	–	–	–	–	–	–	–	–	Beginning of pain reaction ([1]; Table 4, dose 1 μg): 5 (2) sec; Beginning of the 2nd peak ([1]; Table 4, dose 1 μg): 17 (2) min; Duration of the 1st peak of pain reaction ([1]; Table 4, dose 1 μg): 402 (36); Analgesic activity in the formalin test (in words) ([1]; rats): does not have analgesic activity
D-Thr-D-Glu-D-Leu-D-15 Lys-L-His-D-Leu-NH2	8 ± 3	48 ± 18	21.0 ± 5.3	300 ± 10	10 ± 2	12.5 ± 1.6, the min	342 ± 26	15.0 ± 1.6	314 ± 32	Number of rats that do not have the 2nd peak ([2]; intranasal, dose 1 μg, remark in the 2nd peak column): first one has none
D-Thr-D-Glu-D-Leu-D-Lys-D-His-D-Leu-NH2 [Complete retro-inversion CT16-21]	20 ± 9	126	16.2 ± 2.6	249 ± 20	12 ± 6	17.4 ± 2.9 min	300 ± 46	14.4 ± 1.0	333 ± 9	–
LHKLQT [CT16-21]	–	–	–	–	–	–	–	–	–	Duration of the first peak of pain reaction ([1]; rats, dose 0.001 μg/rat): 394 (34) sec; Time of pain reaction onset ([1]; rats, dose 0.001 μg/rat): 17 (6) sec; Duration of the first peak of pain reaction ([1]; rats, dose 0.01 μg/rat): 328 (21) sec; Time of pain reaction onset ([1]; rats, dose 0.01 μg/rat): 19 (8) sec; Duration of the first peak of pain reaction ([1]; rats, dose 0.1 μg/rat): 263 (20) a < 0.001 sec; Time of pain reaction onset ([1]; rats, dose 0.1 μg/rat): 39 (8) a < 0.001 sec; Beginning of the 2nd peak ([1]; Table 3, dose 1 μg per rat): 21 ± 2 min; Duration of the 1st peak ([1]; Table 3, dose 1 μg per rat): 284 ± 20 s; Number of animals which do not have the 2nd peak of reaction ([1]; Table 3, dose 1 μg per rat): 4; Beginning of pain reaction ([1]; Table 3, dose 1 μg per rat, in s): 30 ± 6; Analgesic activity in the rat formalin test (in words) [3]: high analgesic activity; Impact on calcium metabolism [4]: does not have immunologic activity, impact on calcium metabolism
